This note sets out measurements from ChEMBL document CHEMBL1156164, “Synthesis of 26-hydroxy-22-oxocholestanic frameworks from diosgenin and hecogenin and their in vitro antiproliferative and apoptotic activity on human cervical cancer CaSki cells” (Bioorg Med Chem, 2010).

Data set [1] has as its system Ca-Ski. The data set can be described thus: Antiproliferative activity against human CaSki cells after 24 hrs using crystal violet staining by ELISA. Type of data set: functional, cell-based.
The test system of data set [2] is Ca-Ski. In words: Effect on human CaSki cell morphology assessed as formation of large cells at IC50 after 24 hrs by microscopy. It counts as functional, cell-based.
For data set [3], the system named is Ca-Ski. In words: Effect on human CaSki cell morphology assessed as formation of non-reflective small inclusion bodies at IC50 after 24 hrs by microscopy. It counts as functional, cell-based.
Data set [4] concerns Ca-Ski. The data set can be described thus: Induction of necrosis of human CaSki cells assessed as LDH accumulation in culture supernatant at IC50 after 24 hrs by INT assay. It counts as functional.
Data set [5] can be described thus: Induction of necrosis of PHA-activated human lymphocytes assessed as LDH accumulation in culture supernatant at IC50 after 72 hrs by INT assay. The note with it: lymphocyte. It counts as cell-based.
In data set [6] the test system is Ca-Ski. The data set can be described thus: Cell cycle arrest in human CaSki cells assessed as DNA accumulation at G1 phase at IC50 after 24 hrs using propidium iodide staining by flow cytometry. It counts as functional, cell-based. A general note: A flow cytometer gives signals particle by particle.
For data set [7], the system named is Ca-Ski. In words: Cell cycle arrest in human CaSki cells assessed as DNA accumulation at S phase at IC50 after 24 hrs using propidium iodide staining by flow cytometry. It counts as functional, cell-based.
Data set [8] concerns Ca-Ski. The data set can be described thus: Cell cycle arrest in human CaSki cells assessed as DNA accumulation at G2/M phase at IC50 after 24 hrs using propidium iodide staining by flow cytometry. It counts as functional, cell-based.
Data set [9] has as its system Ca-Ski. In words: Cell cycle arrest in human CaSki cells assessed as DNA accumulation at sub G1 phase at IC50 after 24 hrs using propidium iodide staining by flow cytometry. Type of data set: functional, cell-based.
Data set [10] relates to Ca-Ski. In words: Induction of apoptosis in human CaSki cells assessed as appearance of apoptotic bodies at IC50 after 24 hrs by DAPI staining. Type of data set: functional, cell-based.
Data set [11] concerns Ca-Ski. The data set can be described thus: Induction of apoptosis in human CaSki cells assessed as increase in active caspase-3 expression at IC50 after 24 hrs by immunocytochemistry. It counts as functional, cell-based.
Data set [12] has as its system Ca-Ski. The data set can be described thus: Induction of apoptosis in human CaSki cells assessed as fragmentation of genomic DNA at IC50 after 24 hrs by TUNEL assay. It counts as functional, cell-based.
The nature of data set [13]: Cytotoxicity against human fibroblast cells at IC50 after 24 hrs by crystal violet staining. It counts as cell-based.
Data set [14] relates to PBMC. The data set can be described thus: Effect on enriched human PBMC proliferation assessed as proliferating cells at IC50 after 72 hrs using CSFE labeling by flow cytometry. It counts as functional.
Data set [15] has as its system PBMC. The data set can be described thus: Induction of enriched human PBMC proliferation assessed as non-proliferating cells at IC50 after 72 hrs using CSFE labeling by flow cytometry. Type of data set: functional.
Data set [16] concerns Ca-Ski. In words: Effect on human CaSki cell morphology assessed as formation of small spherical cells at IC50 after 24 hrs by microscopy. It counts as functional, cell-based.
Data set [17] deals with Ca-Ski. The data set can be described thus: Induction of apoptosis in human CaSki cells assessed as chromatin condensation at IC50 after 24 hrs by DAPI staining. It counts as functional, cell-based.

SMILES strings stand for the structures. pIC50: −log10 of the molar value. Activity calls are given as the source filed them. The rule behind the calls is not given here.

For the compound `CC(=O)O[C@H]1CC[C@@]2(C)[C@@H](CC[C@@H]3[C@@H]2CC(=O)[C@]2(C)[C@@H]([C@H](C)C(=O)CC[C@@H](C)CO)[C@@H](OC(C)=O)C[C@@H]32)C1`, the Activity entry in the data set with Ca-Ski [1] is “Dose-dependent effect”; with Ca-Ski [4], 28%; in data set [5], “Not Active”; in data set [13], 18%; in the data set on PBMC [14], 63.68%; with PBMC [15], 36.34%. In the data set with Ca-Ski [1], this compound had a negative-log IC50 (pIC50) of 3.73. The outcome with Ca-Ski [2], in the data set on Ca-Ski [3], with Ca-Ski [7], with Ca-Ski [9], in the data set on Ca-Ski [10] and in the data set with Ca-Ski [11] was Active. In addition, the result in the data set with Ca-Ski [12] was Active. The result in the data set with Ca-Ski [6] and in the data set with Ca-Ski [8] was inactive.
For `CC(=O)O[C@H]1CC[C@@]2(C)C(=CC[C@H]3[C@@H]4C[C@H](OC(C)=O)[C@H]([C@H](C)C(=O)CC[C@@H](C)CO)[C@@]4(C)CC[C@@H]32)C1`, the Activity result in the data set with Ca-Ski [1] is “Dose-dependent effect”; in data set [5] it was “Not Active”; in data set [13] it was “Not Active”; in the data set on PBMC [14] it was 76.15%; with PBMC [15], 23.85%. Also, the pIC50 with Ca-Ski [1] was 4.33. Also, the outcome in the data set on Ca-Ski [16], in the data set with Ca-Ski [6], with Ca-Ski [7], with Ca-Ski [8], in the data set on Ca-Ski [9] and in the data set with Ca-Ski [17] was Active. The result in the data set on Ca-Ski [11] was Active. The result with Ca-Ski [4] and in the data set with Ca-Ski [12] was inactive.

The pIC50 is the negative decadic logarithm of the IC50, by convention in mol/L. The low end stands for a high IC50, the high end for a low IC50.
